Laboratory results from the NIST ThermoML archive (doi:10.1021/je300280s).
Where “and” joins values, the source holds several entries; their conditions need not be identical. Equal entries are not always repeated. Numbers after ± are expanded uncertainties.

Experiments:
[1] = 101.33 kPa, Liquid, Vibrating tube method
[2] = excess molar enthalpy (molar enthalpy of mixing); xn = mol fraction of the nth substance listed; details: 101.3 kPa, Liquid, Flow calorimetry
[3] = xn = mol fraction of the nth substance listed; details: 101.3 kPa, Liquid, Vibrating tube method

Which results are given for `CC/C=C\CCO` [(Z)-3-hexen-1-ol]?
mass density ([1]; 288.15 K): 856.22 ± 0.68 kg/m3; mass density ([1]; 293.15 K): 852.44 ± 0.68 kg/m3; mass density ([1]; 298.15 K): 848.64 ± 0.67 kg/m3; mass density ([1]; 308.15 K): 840.99 ± 0.67 kg/m3; mass density ([1]; 318.15 K): 833.27 ± 0.66 kg/m3

With `CC/C=C\CCO` [(Z)-3-hexen-1-ol] + O as the compound, how does the excess molar enthalpy ([2]; 288.15 K, x1 = 0.000611) read?
Its excess molar enthalpy is -0.00142 ± 0.000196 kcal/mol.

What about the excess molar enthalpy ([2]; 288.15 K, x1 = 0.000916) of the same compound?
Its excess molar enthalpy is -0.0021 ± 0.000201 kcal/mol.

What about the excess molar enthalpy ([2]; 288.15 K, x1 = 0.001221) of the same compound?
Its excess molar enthalpy is -0.00278 ± 0.000206 kcal/mol.

And the excess molar enthalpy ([2]; 288.15 K, x1 = 0.001526)?
Its excess molar enthalpy is -0.00344 ± 0.00022 kcal/mol.

What about the excess molar enthalpy ([2]; 288.15 K, x1 = 0.001831) of the same compound?
Its excess molar enthalpy is -0.0041 ± 0.000234 kcal/mol.

What about the excess molar enthalpy ([2]; 288.15 K, x1 = 0.002135) of the same compound?
The excess molar enthalpy was -0.00473 ± 0.000239 kcal/mol.

What about the excess molar enthalpy ([2]; 298.15 K, x1 = 0.00061) of the same compound?
Its excess molar enthalpy is -0.000963 ± 0.000194 kcal/mol.

What about the excess molar enthalpy ([2]; 298.15 K, x1 = 0.000915) of the same compound?
The excess molar enthalpy was -0.00143 ± 0.000196 kcal/mol.

What about the excess molar enthalpy ([2]; 298.15 K, x1 = 0.00122) of the same compound?
Its excess molar enthalpy is -0.00187 ± 0.000201 kcal/mol.

And the excess molar enthalpy ([2]; 298.15 K, x1 = 0.001524)?
The excess molar enthalpy was -0.00231 ± 0.000203 kcal/mol.

What about the excess molar enthalpy ([2]; 298.15 K, x1 = 0.001828) of the same compound?
The excess molar enthalpy was -0.00275 ± 0.000206 kcal/mol.

And the excess molar enthalpy ([2]; 298.15 K, x1 = 0.002132)?
The excess molar enthalpy was -0.00316 ± 0.000213 kcal/mol.

What about the excess molar enthalpy ([2]; 308.15 K, x1 = 0.000306) of the same compound?
The excess molar enthalpy was -0.00028 ± 0.000186 kcal/mol.

What about the excess molar enthalpy ([2]; 308.15 K, x1 = 0.000611) of the same compound?
The excess molar enthalpy was -0.000528 ± 0.000189 kcal/mol.

What about the excess molar enthalpy ([2]; 308.15 K, x1 = 0.000612) of the same compound?
Its excess molar enthalpy is -0.000533 ± 0.000189 kcal/mol.

What about the excess molar enthalpy ([2]; 308.15 K, x1 = 0.000916) of the same compound?
Its excess molar enthalpy is -0.000786 ± 0.000191 kcal/mol.

And the excess molar enthalpy ([2]; 308.15 K, x1 = 0.000918)?
Its excess molar enthalpy is -0.000789 ± 0.000191 kcal/mol.

And the excess molar enthalpy ([2]; 308.15 K, x1 = 0.001221)?
The excess molar enthalpy was -0.00102 ± 0.000194 kcal/mol.

What about the excess molar enthalpy ([2]; 308.15 K, x1 = 0.001224) of the same compound?
Its excess molar enthalpy is -0.00102 ± 0.000194 kcal/mol.

And the excess molar enthalpy ([2]; 308.15 K, x1 = 0.001526)?
The excess molar enthalpy was -0.00125 ± 0.000196 kcal/mol.

And the excess molar enthalpy ([2]; 308.15 K, x1 = 0.001529)?
The excess molar enthalpy was -0.00126 ± 0.000196 kcal/mol.

What about the excess molar enthalpy ([2]; 308.15 K, x1 = 0.001835) of the same compound?
Its excess molar enthalpy is -0.00146 ± 0.000196 kcal/mol.

And the excess molar enthalpy ([2]; 318.15 K, x1 = 0.000611)?
The excess molar enthalpy was -0.000141 ± 0.000186 kcal/mol.

What about the excess molar enthalpy ([2]; 318.15 K, x1 = 0.000612) of the same compound?
Its excess molar enthalpy is -0.000139 ± 0.000186 kcal/mol.

And the excess molar enthalpy ([2]; 318.15 K, x1 = 0.000917)?
Its excess molar enthalpy is -0.000198 kcal/mol and -0.000194 kcal/mol.

What about the excess molar enthalpy ([2]; 318.15 K, x1 = 0.001222) of the same compound?
Its excess molar enthalpy is -0.000241 ± 0.000186 kcal/mol.

What about the excess molar enthalpy ([2]; 318.15 K, x1 = 0.001223) of the same compound?
Its excess molar enthalpy is -0.000239 ± 0.000186 kcal/mol.

What about the excess molar enthalpy ([2]; 318.15 K, x1 = 0.001527) of the same compound?
The excess molar enthalpy was -0.00028 ± 0.000186 kcal/mol.

And the excess molar enthalpy ([2]; 318.15 K, x1 = 0.001528)?
Its excess molar enthalpy is -0.000284 ± 0.000186 kcal/mol.

And the excess molar enthalpy ([2]; 318.15 K, x1 = 0.001832)?
Its excess molar enthalpy is -0.000308 ± 0.000186 kcal/mol.

What about the excess molar enthalpy ([2]; 318.15 K, x1 = 0.001833) of the same compound?
Its excess molar enthalpy is -0.000311 ± 0.000186 kcal/mol.

And the mass density ([3]; 288.15 K, x1 = 0.000611)?
The mass density was 998.763 ± 0.033 kg/m3.

What about the mass density ([3]; 288.15 K, x1 = 0.000916) of the same compound?
The mass density was 998.596 ± 0.033 kg/m3.

And the mass density ([3]; 288.15 K, x1 = 0.001221)?
The mass density was 998.432 ± 0.033 kg/m3.

What about the mass density ([3]; 288.15 K, x1 = 0.001526) of the same compound?
Its mass density is 998.27 ± 0.033 kg/m3.

And the mass density ([3]; 288.15 K, x1 = 0.001831)?
Its mass density is 998.106 ± 0.033 kg/m3.

What about the mass density ([3]; 288.15 K, x1 = 0.002135) of the same compound?
Its mass density is 997.95 ± 0.033 kg/m3.

What about the mass density ([3]; 298.15 K, x1 = 0.00061) of the same compound?
Its mass density is 996.68 ± 0.034 kg/m3.

What about the mass density ([3]; 298.15 K, x1 = 0.000915) of the same compound?
The mass density was 996.493 ± 0.034 kg/m3.

What about the mass density ([3]; 298.15 K, x1 = 0.00122) of the same compound?
The mass density was 996.319 ± 0.034 kg/m3.

And the mass density ([3]; 298.15 K, x1 = 0.001524)?
The mass density was 996.139 ± 0.035 kg/m3.

What about the mass density ([3]; 298.15 K, x1 = 0.001828) of the same compound?
The mass density was 995.963 ± 0.035 kg/m3.

And the mass density ([3]; 298.15 K, x1 = 0.002132)?
Its mass density is 995.788 ± 0.036 kg/m3.

And the mass density ([3]; 308.15 K, x1 = 0.000306)?
Its mass density is 993.834 ± 0.036 kg/m3.

And the mass density ([3]; 308.15 K, x1 = 0.000611)?
The mass density was 993.642 ± 0.037 kg/m3.

And the mass density ([3]; 308.15 K, x1 = 0.000612)?
The mass density was 993.637 ± 0.037 kg/m3.

What about the mass density ([3]; 308.15 K, x1 = 0.000916) of the same compound?
Its mass density is 993.442 ± 0.13 kg/m3.

And the mass density ([3]; 308.15 K, x1 = 0.000918)?
The mass density was 993.441 ± 0.13 kg/m3.

What about the mass density ([3]; 308.15 K, x1 = 0.001221) of the same compound?
The mass density was 993.253 ± 0.12 kg/m3.

What about the mass density ([3]; 308.15 K, x1 = 0.001224) of the same compound?
Its mass density is 993.253 ± 0.096 kg/m3.

What about the mass density ([3]; 308.15 K, x1 = 0.001526) of the same compound?
The mass density was 993.064 ± 0.15 kg/m3.

What about the mass density ([3]; 308.15 K, x1 = 0.001529) of the same compound?
The mass density was 993.059 ± 0.14 kg/m3.

What about the mass density ([3]; 308.15 K, x1 = 0.001831) of the same compound?
Its mass density is 992.912 ± 0.14 kg/m3.

What about the mass density ([3]; 308.15 K, x1 = 0.001835) of the same compound?
Its mass density is 992.883 ± 0.13 kg/m3.

What about the mass density ([3]; 318.15 K, x1 = 0.000611) of the same compound?
Its mass density is 989.794 ± 0.039 kg/m3.

What about the mass density ([3]; 318.15 K, x1 = 0.000612) of the same compound?
Its mass density is 989.796 ± 0.039 kg/m3.

What about the mass density ([3]; 318.15 K, x1 = 0.000917) of the same compound?
Its mass density is 989.578 ± 0.039 kg/m3 and 989.591 ± 0.039 kg/m3.

What about the mass density ([3]; 318.15 K, x1 = 0.001222) of the same compound?
Its mass density is 989.38 ± 0.04 kg/m3.

And the mass density ([3]; 318.15 K, x1 = 0.001223)?
The mass density was 989.388 ± 0.04 kg/m3.

What about the mass density ([3]; 318.15 K, x1 = 0.001527) of the same compound?
The mass density was 989.183 ± 0.04 kg/m3.

What about the mass density ([3]; 318.15 K, x1 = 0.001528) of the same compound?
The mass density was 989.184 ± 0.04 kg/m3.

What about the mass density ([3]; 318.15 K, x1 = 0.001832) of the same compound?
Its mass density is 988.988 ± 0.04 kg/m3.

What about the mass density ([3]; 318.15 K, x1 = 0.001833) of the same compound?
Its mass density is 988.984 ± 0.04 kg/m3.

What about the mass density ([3]; 318.15 K, x1 = 0.002137) of the same compound?
The mass density was 988.803 ± 0.04 kg/m3 and 988.815 ± 0.04 kg/m3.

Which mass density ([1]; 288.15 K) does the source give for `CCCOC(C)=O` [propyl ethanoate] here?
Its mass density is 893.2 ± 0.2 kg/m3.

And the mass density ([1]; 298.15 K)?
Its mass density is 882.05 ± 0.2 kg/m3.

And the mass density ([1]; 308.15 K)?
Its mass density is 870.87 ± 0.2 kg/m3.

What about the mass density ([1]; 318.15 K) of the same compound?
The mass density was 859.52 ± 0.2 kg/m3.

For `CCCC(=O)OC` [methyl butanoate], which mass density ([1]; 288.15 K) is on record?
Its mass density is 903.34 ± 0.27 kg/m3.

What about the mass density ([1]; 293.15 K) of the same compound?
The mass density was 897.88 ± 0.27 kg/m3.

What about the mass density ([1]; 298.15 K) of the same compound?
The mass density was 892.38 ± 0.27 kg/m3.

And the mass density ([1]; 303.15 K)?
The mass density was 886.86 ± 0.27 kg/m3.

What about the mass density ([1]; 308.15 K) of the same compound?
Its mass density is 881.3 ± 0.27 kg/m3.

What about the mass density ([1]; 313.15 K) of the same compound?
Its mass density is 875.74 ± 0.27 kg/m3.

And the mass density ([1]; 318.15 K)?
The mass density was 870.14 ± 0.27 kg/m3.

What does the source list for `CC(=O)C(C)=O` [2,3-butanedione]?
mass density ([1]; 288.15 K): 998.09 ± 0.27 kg/m3; mass density ([1]; 293.15 K): 991.78 ± 0.27 kg/m3; mass density ([1]; 298.15 K): 985.5 ± 0.27 kg/m3; mass density ([1]; 303.15 K): 979.18 ± 0.27 kg/m3; mass density ([1]; 308.15 K): 972.83 ± 0.27 kg/m3; mass density ([1]; 313.15 K): 966.48 ± 0.27 kg/m3; mass density ([1]; 318.15 K): 960.08 ± 0.27 kg/m3
